For data set [1], the system named is Enterococcus casseliflavus ATCC 700327 (vanC). In kind it is cell-based. The conditions noted are these: ATCC 700327, 18 h. Here is the method: (§1) The minimum inhibitory concentration (MIC) was determined by microdilution following the EUCAST and CLSI guidelines via the broth microdilution assay on a 96-well plate. Substances were dissolved in saline solution (0.9%) at a concentration equimolar to 1.28 mg/mL vancomycin. With an increasing hydrophobicity, some substances had to be pre-dissolved in DMSO. The final concentration of DMSO remained below 1.5% and was compared to the DMSO control (no antimicrobial effect was observed up to the highest concentration tested (10%)). All substances were serially diluted on the 96-well plate using Mueller-Hinton-Broth II (cation adjusted). Vancomycin was always used as a control. For bacterial loading, an overnight culture of the referring strain was taken and adjusted to a turbidity corresponding to 10^8 cfu/mL. The bacterial suspension was further diluted to load a bacterial number of 10^6 cfu/mL on the 96-well plate and incubate it for 18 h at 35 ± 1 °C, as described before. MIC was defined as the lowest concentration without visible growth.

Data set [2] has as its system Enterococcus faecium UL602570 (vanA, clinical isolate). In kind it is cell-based. The conditions noted are these: for MIC median / MIC range: UL602570 (vanA, clinical isolate, 18 h). Here is the method: as §1
Data set [3] concerns E. faecium ATCC 51559 (vanA). In kind it is cell-based, Enterococcus faecium. To be noted: for MIC median / MIC range: ATCC 51559, 18 h. As for the experimental part:
as §1

Data set [4] has as its system E. faecalis ATCC 51299 (vanB). In kind it is cell-based, Enterococcus faecalis. To be noted: ATCC 51299, 18 h. Here is the method:
as §1

Data set [5] has as its system human blood (red blood cells). Put plainly: Hemolysis (hemoglobin release assay). In kind it is cell-based. To be noted: concentrations above 100 µM, range applied 1-900 µM, 2 h, 37 °C. As for the experimental part: Hemolytic activity was determined by the hemoglobin release assay on a 96-well plate. Fresh venal blood was collected from volunteers in anticoagulant tubes. The blood samples were centrifuged for 3 min at 2500 rpm, and afterwards, the supernatant was discarded and PBS (pH 7.4) was added. The tubes were gently inverted, and the previous step was repeated two times. Substances were serial two-fold diluted in PBS (pH 7.4) on a 96-well V-bottom plate. Triton X-100 (1% in PBS) was used as a positive control (Xpos). […] In total, 50 µL of the purified blood samples was added to all columns. After 2 h incubation at 37 °C, the 96-well plate was centrifuged at 4000 rpm for 2 min. The supernatant was transferred to a new flat-bottom 96-well plate and absorption was measured at 554 nm. The percentage of hemolysis was calculated according to the following equation:% hemolysis = 100 × (Xsample − Xblank)/(Xpos − Xblank).(1)

For data set [6], the system named is human blood (red blood cells). The conditions noted are these: cited from earlier work. As for the experimental part:
In order to investigate the hemolytic behavior, human blood from healthy volunteers was taken and exposed to different concentrations of selected conjugates. As a control, unmodified vancomycin, known to have non-hemolytic properties up to 12 mM [40], was used (Figure 4).

The conditions of data set [7]: comparison statement of the abstract, no reference given; cited from earlier work. The source says: Multidrug-resistant bacteria represent one of the most important health care problems worldwide. While there are numerous drugs available for standard therapy, there are only a few compounds capable of serving as a last resort for severe infections. Therefore, approaches to control multidrug-resistant bacteria must be implemented. Here, a strategy of reactivating the established glycopeptide antibiotic vancomycin by structural modification with polycationic peptides and subsequent fatty acid conjugation to overcome the resistance of multidrug-resistant bacteria was followed. This study especia ...

≈ marks a conversion by molar mass, not a printed value.

As for `CCCCCCCCCCCC(=O)N[C@@H](CCCNC(=N)N)C(=O)N[C@@H](CCCNC(=N)N)C(=O)N[C@@H](CCCNC(=N)N)C(=O)N[C@@H](CSC1CC(=O)N(CC2CCC(C(=O)NCCNC(=O)[C@H]3NC(=O)[C@H]4NC(=O)[C@H](NC(=O)[C@@H]5NC(=O)[C@H](CC(N)=O)NC(=O)[C@H](NC(=O)[C@@H](CC(C)C)NC)[C@H](O)c6ccc(c(Cl)c6)Oc6cc5cc(c6O[C@@H]5O[C@H](CO)[C@@H](O)[C@H](O)[C@H]5O[C@H]5C[C@](C)(N)[C@H](O)[C@H](C)O5)Oc5ccc(cc5Cl)[C@H]4O)c4ccc(O)c(c4)-c4c(O)cc(O)cc43)CC2)C1=O)C(N)=O` (some centres unmarked) [VC-R3C-C12], the MIC median was 4 µg/mL (≈ 1.61 µM) in data set [1], 4.84 µg/mL (≈ 1.95 µM) in data set [2], 4.84 µg/mL (≈ 1.95 µM) in data set [3] and 4 µg/mL (≈ 1.61 µM) in data set [4]. The MIC range in data set [1] was 1 to 4 µg/mL; in data set [2], 2.42 to 4.84 µg/mL; in data set [3], 4.84 to 9.69 µg/mL.
`CCCCCCCCCCCC(=O)N[C@@H](CCCNC(=N)N)C(=O)N[C@@H](CCCNC(=N)N)C(=O)N[C@@H](CCCNC(=N)N)C(=O)N[C@@H](CSC1CC(=O)N(CC2CCC(C(=O)N(C)[C@H](CC(C)C)C(=O)N[C@H]3C(=O)N[C@@H](CC(N)=O)C(=O)N[C@H]4C(=O)N[C@H]5C(=O)N[C@H](C(=O)N[C@H](C(=O)O)c6cc(O)cc(O)c6-c6cc5ccc6O)[C@H](O)c5ccc(c(Cl)c5)Oc5cc4cc(c5O[C@@H]4O[C@H](CO)[C@@H](O)[C@H](O)[C@H]4O[C@H]4C[C@](C)(N)[C@H](O)[C@H](C)O4)Oc4ccc(cc4Cl)[C@H]3O)CC2)C1=O)C(N)=O` (some centres unmarked) [VN-R3C-C12]: the MIC median in data set [1] came to 2.5 µg/mL (≈ 1.02 µM); in data set [2], 2.37 µg/mL (≈ 0.971 µM); in data set [3], 4.72 µg/mL (≈ 1.93 µM); in data set [4], 4 µg/mL (≈ 1.64 µM). In addition, the MIC range in data set [1] is 1 to 4 µg/mL; in data set [2] it was 2.37 to 4.73 µg/mL; in data set [3], 4.72 to 9.44 µg/mL.
On to `CN[C@H](CC(C)C)C(=O)N[C@H]1C(=O)N[C@@H](CC(N)=O)C(=O)N[C@H]2C(=O)N[C@H]3C(=O)N[C@H](C(=O)N[C@H](C(=O)O)c4cc(O)cc(O)c4-c4cc3ccc4O)[C@H](O)c3ccc(c(Cl)c3)Oc3cc2cc(c3O[C@@H]2O[C@H](CO)[C@@H](O)[C@H](O)[C@H]2O[C@H]2C[C@](C)(N)[C@H](O)[C@H](C)O2)Oc2ccc(cc2Cl)[C@H]1O` [vancomycin], for which the “resistance against vancomycin up to (concentration)” value in data set [2] (E. faecium UL602570, vanA clinical isolate) is “up to 640 mg/L”. Further, in data set [3] (E. faecium ATCC 51559, vanA), the “resistant to up to (vancomycin concentration)” value is on record as “up to 1024 mg/L”. Besides, the “hemolytic effect at higher concentrations” value in data set [5] was “could neither be observed”. Moreover, the “non-hemolytic properties up to (concentration)” value in data set [6] was “up to 12 mM”. The excretion route result in data set [7] is given as “rapidly excreted by the kidneys”.
Take `CCCCCCCCCCCC(=O)N[C@@H](CCCNC(=N)N)C(=O)N[C@@H](CCCNC(=N)N)C(=O)N[C@@H](CCCNC(=N)N)C(=O)N[C@@H](CSC1CC(=O)N(CC2CCC(C(=O)NCCN[C@@]3(C)C[C@H](O[C@H]4[C@H](Oc5c6cc7cc5Oc5ccc(cc5Cl)[C@@H](O)[C@@H](NC(=O)[C@@H](CC(C)C)NC)C(=O)N[C@@H](CC(N)=O)C(=O)N[C@H]7C(=O)N[C@H]5C(=O)N[C@H](C(=O)N[C@H](C(=O)O)c7cc(O)cc(O)c7-c7cc5ccc7O)[C@H](O)c5ccc(c(Cl)c5)O6)O[C@H](CO)[C@@H](O)[C@@H]4O)O[C@@H](C)[C@H]3O)CC2)C1=O)C(N)=O` (some centres unmarked) [VV-R3C-C12]: the MIC median turned out to be 2.5 µg/mL (≈ 1.01 µM) in data set [1], 0.24 µg/mL (≈ 0.0967 µM) in data set [2], 3.88 µg/mL (≈ 1.56 µM) in data set [3] and 4 µg/mL (≈ 1.61 µM) in data set [4]. The MIC range in data set [1] is 0.5 to 4 µg/mL; in data set [2], 0.06 to 0.48 µg/mL; in data set [3], 3.88 to 7.75 µg/mL.

The record behind these values is PMC7345083, “Vancomycin-Lipopeptide Conjugates with High Antimicrobial Activity on Vancomycin-Resistant Enterococci” (Pharmaceuticals, 2020).
